Measurements reported in patent US11912703B2, “6-azaindole compounds” (BRISTOL-MYERS SQUIBB COMPANY, priority 2017, dated 2024).
Where two headings read alike, the source gives them in different places.

Experiments:
human TLR8 = human TLR8 (Homo sapiens (Human), UniProt Q9NR97); assay: TLR8 inhibition reporter assay (HEK-Blue SEAP);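 note: SEAP driven by IFN-β minimal promoter with five NF-κB and AP-1 sites, compounds tested 0.05 nM to 50 µM, 22 h incubation, inhibition relative to agonist plus DMSO wells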
Chain of human TLR8 (Q9NR97 27-1041): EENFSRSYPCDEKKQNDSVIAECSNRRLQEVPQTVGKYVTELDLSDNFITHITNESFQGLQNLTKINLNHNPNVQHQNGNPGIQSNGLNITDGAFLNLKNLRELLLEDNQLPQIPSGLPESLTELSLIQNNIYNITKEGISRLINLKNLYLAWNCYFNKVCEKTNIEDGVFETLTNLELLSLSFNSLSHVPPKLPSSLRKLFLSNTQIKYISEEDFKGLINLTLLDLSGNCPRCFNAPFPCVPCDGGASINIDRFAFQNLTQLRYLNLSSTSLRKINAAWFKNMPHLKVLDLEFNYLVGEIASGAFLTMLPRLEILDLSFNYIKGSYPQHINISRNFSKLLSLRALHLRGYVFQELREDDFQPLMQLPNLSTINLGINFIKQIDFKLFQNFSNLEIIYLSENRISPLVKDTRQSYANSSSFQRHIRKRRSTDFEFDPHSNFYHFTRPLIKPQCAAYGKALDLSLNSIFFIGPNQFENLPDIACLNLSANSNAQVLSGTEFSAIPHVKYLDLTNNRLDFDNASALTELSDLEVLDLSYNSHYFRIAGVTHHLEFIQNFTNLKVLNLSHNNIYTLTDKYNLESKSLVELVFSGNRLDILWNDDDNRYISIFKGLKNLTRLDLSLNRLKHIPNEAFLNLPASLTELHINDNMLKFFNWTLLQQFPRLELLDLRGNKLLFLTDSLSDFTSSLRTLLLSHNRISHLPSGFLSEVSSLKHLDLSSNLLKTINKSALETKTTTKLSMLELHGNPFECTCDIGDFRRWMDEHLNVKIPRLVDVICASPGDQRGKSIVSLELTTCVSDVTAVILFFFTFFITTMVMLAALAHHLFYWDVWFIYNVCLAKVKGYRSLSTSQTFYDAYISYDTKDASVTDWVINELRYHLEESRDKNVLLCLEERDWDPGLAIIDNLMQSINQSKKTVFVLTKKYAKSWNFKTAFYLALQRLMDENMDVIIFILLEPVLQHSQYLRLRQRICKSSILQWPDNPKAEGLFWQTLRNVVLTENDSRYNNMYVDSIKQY
Description: (§1) HEK-Blue™-cells (Invivogen) overexpressing human TLR7, TLR8 or TLR9 receptors were used for screening inhibitors of these receptors using an inducible SEAP (secreted embryonic alkaline phosphatase) reporter gene under the control of the IFN-β minimal promoter fused to five NF-κB and AP-1-binding sites. Briefly, cells are seeded into Greiner 384 well plates (15000 cells per well for TLR7, 20,000 for TLR8 and 25,000 for TLR9) and then treated with test compounds in DMSO to yield a final dose response concentration range of 0.05 nM-50 μM. After a 30 minute compound pre-treatment at room temperature, the cells are then stimulated with a TLR7 ligand (gardiquimod at a final concentration of 7.5 μM), TLR8 ligand (R848 at a final concentration of 15.9 μM) or TLR9 ligand (ODN2006 at a final concentration of 5 nM) to activate NF-κB and AP-1 which induce the production of SEAP. After a 22 hour incubation at 37° C., 500 CO2, SEAP levels are determined with the addition of HEK-Blue™ Detection reagent (Invivogen), a cell culture medium that allows for detection of SEAP, according to manufacturer's specifications.

human TLR9 = human TLR9 (Homo sapiens (Human), UniProt Q9NR96); assay: TLR9 inhibition reporter assay (HEK-Blue SEAP);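 note: SEAP driven by IFN-β minimal promoter carrying five NF-κB and AP-1 sites, 22 h at 37 °C, compounds 0.05 nM–50 µM, inhibition scaled between agonist-plus-DMSO and reference-inhibitor wells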
Chain of human TLR9 (Q9NR96 26-1032): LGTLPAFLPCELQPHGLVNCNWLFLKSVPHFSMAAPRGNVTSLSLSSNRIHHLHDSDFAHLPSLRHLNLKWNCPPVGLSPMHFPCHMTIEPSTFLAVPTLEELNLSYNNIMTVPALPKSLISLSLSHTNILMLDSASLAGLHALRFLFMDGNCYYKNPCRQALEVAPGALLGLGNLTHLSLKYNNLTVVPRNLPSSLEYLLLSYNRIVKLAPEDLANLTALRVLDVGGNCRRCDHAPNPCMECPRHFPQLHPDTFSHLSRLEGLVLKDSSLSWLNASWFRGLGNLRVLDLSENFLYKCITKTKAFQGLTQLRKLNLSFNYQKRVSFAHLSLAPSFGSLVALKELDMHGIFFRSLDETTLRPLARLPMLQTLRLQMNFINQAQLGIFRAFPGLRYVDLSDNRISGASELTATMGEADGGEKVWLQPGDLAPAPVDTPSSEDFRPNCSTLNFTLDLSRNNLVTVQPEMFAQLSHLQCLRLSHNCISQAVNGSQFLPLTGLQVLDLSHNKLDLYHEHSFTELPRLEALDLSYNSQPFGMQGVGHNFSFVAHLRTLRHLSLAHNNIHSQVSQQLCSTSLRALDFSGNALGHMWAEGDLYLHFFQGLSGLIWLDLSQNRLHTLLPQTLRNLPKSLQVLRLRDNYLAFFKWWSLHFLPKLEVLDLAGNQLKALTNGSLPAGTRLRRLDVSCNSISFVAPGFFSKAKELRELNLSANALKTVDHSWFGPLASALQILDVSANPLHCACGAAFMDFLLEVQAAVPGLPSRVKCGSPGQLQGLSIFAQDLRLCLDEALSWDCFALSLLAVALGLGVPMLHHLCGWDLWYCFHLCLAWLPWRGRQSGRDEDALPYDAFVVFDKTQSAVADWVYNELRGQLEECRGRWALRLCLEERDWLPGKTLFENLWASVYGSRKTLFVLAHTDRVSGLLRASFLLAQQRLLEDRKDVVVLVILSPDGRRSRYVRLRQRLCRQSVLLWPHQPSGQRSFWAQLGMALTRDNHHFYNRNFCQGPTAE

human TLR7 = human TLR7 (Homo sapiens (Human), UniProt Q9NYK1); assay: TLR7 inhibition reporter assay (HEK-Blue SEAP); assay type: cell-based; settings: HEK-Blue cells overexpressing human TLR7, gardiquimod 7.5 μM stimulation
Chain of human TLR7 (Q9NYK1 27-1049): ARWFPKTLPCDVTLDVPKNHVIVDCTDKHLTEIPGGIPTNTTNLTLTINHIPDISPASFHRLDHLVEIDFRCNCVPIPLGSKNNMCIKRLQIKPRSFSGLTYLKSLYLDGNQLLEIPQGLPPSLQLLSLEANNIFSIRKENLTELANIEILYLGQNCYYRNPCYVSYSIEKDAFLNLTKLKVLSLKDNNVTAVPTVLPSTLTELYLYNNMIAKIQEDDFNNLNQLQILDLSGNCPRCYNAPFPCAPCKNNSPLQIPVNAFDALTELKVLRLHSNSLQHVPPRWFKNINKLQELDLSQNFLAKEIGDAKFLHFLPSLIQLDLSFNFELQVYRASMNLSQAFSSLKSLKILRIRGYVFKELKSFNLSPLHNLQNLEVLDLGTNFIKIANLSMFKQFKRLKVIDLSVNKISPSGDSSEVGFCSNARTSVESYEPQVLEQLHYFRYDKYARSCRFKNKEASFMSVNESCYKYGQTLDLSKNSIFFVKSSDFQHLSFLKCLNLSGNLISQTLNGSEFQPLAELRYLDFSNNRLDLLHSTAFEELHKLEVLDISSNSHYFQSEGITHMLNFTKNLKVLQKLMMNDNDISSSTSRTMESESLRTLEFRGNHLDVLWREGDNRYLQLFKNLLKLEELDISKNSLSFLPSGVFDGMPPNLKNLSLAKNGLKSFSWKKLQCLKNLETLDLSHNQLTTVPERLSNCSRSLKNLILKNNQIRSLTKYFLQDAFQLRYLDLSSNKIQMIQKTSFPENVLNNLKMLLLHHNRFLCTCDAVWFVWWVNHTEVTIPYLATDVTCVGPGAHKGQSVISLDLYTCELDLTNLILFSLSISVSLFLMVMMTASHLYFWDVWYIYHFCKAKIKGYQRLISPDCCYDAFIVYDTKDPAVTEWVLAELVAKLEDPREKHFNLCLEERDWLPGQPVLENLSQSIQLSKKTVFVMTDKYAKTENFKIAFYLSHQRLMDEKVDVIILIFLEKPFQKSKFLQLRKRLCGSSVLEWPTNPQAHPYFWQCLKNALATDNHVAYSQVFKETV
Description: as §1

[1] = read-out: TLR8 IC50; HEK-Blue cells overexpressing human TLR8, R848 15.9 μM stimulation, SEAP reporter
[2] = read-out: TLR9 IC50; HEK-Blue cells overexpressing human TLR9, ODN2006 5 nM stimulation, SEAP reporter
[3] = read-out: TLR8 IC50; HEK-Blue cells overexpressing human TLR8; R848 15.9 μM stimulation; SEAP reporter
[4] = read-out: TLR9 IC50; HEK-Blue cells overexpressing human TLR9; ODN2006 5 nM stimulation; SEAP reporter

| SMILES | IC50 (human TLR8; [1]) [nM] | IC50 (human TLR9; [2]) [nM] | IC50 (human TLR7) [nM] | IC50 (human TLR8; [3]) [nM] | IC50 (human TLR9; [4]) [nM] | IC50 (human TLR8) [nM] | IC50 (human TLR9) [nM] |
| --- | --- | --- | --- | --- | --- | --- | --- |
| COc1cc(-c2[nH]c3cnc(N4CCN(CC(N)=O)CC4)cc3c2C(C)C)cn2ncnc12 [Example 319] | 3.7 | 14400 | 12 | – | – | – | – |
| Cc1c(-c2[nH]c3cnc(C4CCC(NC(C)C)CC4)c(F)c3c2C(C)C)cn2ncnc2c1C (stereo not drawn) [Example 136] | 0.32 | 620 | 0.41 | – | – | – | – |
| Cc1c(N2CCC(NCC(C)(C)O)CC2)ncc2[nH]c(-c3cc(C)c4ncnn4c3)c(C(C)C)c12 [Example 283] | 0.27 | 1620 | 0.46 | – | – | – | – |
| Cc1c(N2CCC(N3CCOCC3)CC2)ncc2[nH]c(-c3cc(C)c4ncnn4c3)c(C(C)C)c12 [Example 282] | 0.97 | 1070 | 1.1 | – | – | – | – |
| CNCC(=O)N1CCC(c2ncc3[nH]c(-c4cc(OC)c5ncnn5c4)c(C(C)C)c3c2C)CC1 [Example 12] | 273 | 866 | 53 | – | – | – | – |
| COc1cc(-c2[nH]c3cnc(C4CCC(NCC(C)(C)F)CC4)c(C)c3c2C(C)C)cn2ncnc12 (stereo not drawn) [Example 271] | 4.2 | 333 | 1.6 | – | – | – | – |
| Cc1c(-c2[nH]c3cnc(N4CC5(C4)CN(C4CCOCC4)C5)c(F)c3c2C(C)C)cn2ncnc2c1C [Example 401] | 4.4 | 6440 | 27 | – | – | – | – |
| Cc1c(-c2[nH]c3cnc(C4CCC(NCC(C)(C)C)CC4)c(F)c3c2C(C)C)cn2ncnc2c1C (stereo not drawn) [Example 200] | 1.1 | 8780 | 3 | – | – | – | – |
| COC(C)(C)CNC1CCN(c2ncc3[nH]c(-c4cn5ncnc5c(C)c4C)c(C(C)C)c3c2C)CC1 [Example 173] | 0.54 | 653 | 1.5 | – | – | – | – |
| COc1cc(-c2[nH]c3cnc(N4CCC(N(C)C)CC4)c(F)c3c2C(C)C)cn2ncnc12 [Example 218] | – | – | 0.82 | 0.6 | 4740 | – | – |
| CCCN1CCN(c2ncc3[nH]c(-c4cc(OC)c5ncnn5c4)c(C(C)C)c3c2F)[C@H](C)C1 [Example 437] | – | – | 2.6 | – | – | 6.4 | 7670 |
| CCN(C)C1CCC(c2ncc3[nH]c(-c4cn5ncnc5c(C)c4C)c(C(C)C)c3c2F)CC1 (stereo not drawn) [Example 263] | 4.1 | 5650 | 1.9 | – | – | – | – |
| Cc1cc(-c2[nH]c3cnc(N4CCNCC4)cc3c2C(C)C)cn2ncnc12 [Example 301] | > 3120 | 2680 | > 3120 | – | – | – | – |
| COc1cc(-c2[nH]c3cnc(C4CCN(CC(N)=O)CC4)c(F)c3c2C(C)C)cn2ncnc12 [Example 19] | 3 | 1760 | 2 | – | – | – | – |
| COc1cc(-c2[nH]c3cnc(C4CCC(NC5COC5)CC4)c(F)c3c2C(C)C)cn2ncnc12 (stereo not drawn) [Example 224] | – | – | 0.4 | 0.62 | 679 | – | – |
| Cc1cc(-c2[nH]c3cnc(C4CCC(NC5COC5)CC4)c(F)c3c2C(C)C)cn2ncnc12 (stereo not drawn) [Example 80] | 0.6 | 1830 | 0.16 | – | – | – | – |
| COCCN1CCC(c2ncc3[nH]c(-c4cc(OC)c5ncnn5c4)c(C(C)C)c3c2F)CC1 [Example 21] | 2.7 | 3340 | 2 | – | – | – | – |
| COc1cc(-c2[nH]c3cnc(C4CCC(NCC5(C)COC5)CC4)c(F)c3c2C(C)C)cn2ncnc12 (stereo not drawn) [Example 225] | – | – | 4 | 1.4 | 4700 | – | – |
| Cc1c(-c2[nH]c3cnc(C4CCC(NC5COC5)CC4)c(C)c3c2C(C)C)cn2ncnc2c1C (stereo not drawn) [Example 121] | 5.9 | 759 | 2.7 | – | – | – | – |

Continued, values first:

| IC50 (human TLR8; [1]) [nM] | IC50 (human TLR9; [2]) [nM] | IC50 (human TLR7) [nM] | IC50 (human TLR8; [3]) [nM] | IC50 (human TLR9; [4]) [nM] | IC50 (human TLR8) [nM] | IC50 (human TLR9) [nM] | SMILES |
| --- | --- | --- | --- | --- | --- | --- | --- |
| 1.1 | 3500 | 0.91 | – | – | – | – | CNC1CCN(c2ncc3[nH]c(-c4cc(OC)c5ncnn5c4)c(C(C)C)c3c2F)CC1 [Example 191] |
| 4.4 | 768 | 1.1 | – | – | – | – | Cc1cc(-c2[nH]c3cnc(C4CCNCC4)c(F)c3c2C(C)C)cc(C)n1 [Example 151] |
| 0.87 | 1320 | 0.39 | – | – | – | – | CCN(C)C1CCC(c2ncc3[nH]c(-c4cc(C)c5ncnn5c4)c(C(C)C)c3c2F)CC1 (stereo not drawn) [Example 163] |
| 0.9 | 4050 | 1.4 | – | – | – | – | COc1cc(-c2[nH]c3cnc(N4CCN(C5CCC5)CC4)c(F)c3c2C(C)C)cn2ncnc12 [Example 391] |
| 6.4 | 205 | 4.4 | – | – | – | – | COc1cc(-c2[nH]c3cnc(C4CCC(NCC5(C)COC5)CC4)c(C)c3c2C(C)C)cn2ncnc12 (stereo not drawn) [Example 269] |
| 1.4 | 452 | 0.35 | – | – | – | – | Cc1c(-c2[nH]c3cnc(C4CCC(NC5COC5)CC4)cc3c2C(C)C)cn2ncnc2c1C (stereo not drawn) [Example 334] |
| 0.85 | 657 | 3 | – | – | – | – | COc1cc(-c2[nH]c3cnc(N4CCC(NC(C)C)CC4)cc3c2C(C)C)cn2ncnc12 [Example 307] |
| 21 | 28500 | 62 | – | – | – | – | Cc1c(-c2[nH]c3cnc(C4CCC(NC56CC(C5)C6)CC4)c(F)c3c2C(C)C)cn2ncnc2c1C (stereo not drawn) [Example 238] |
| 4.2 | 1330 | 1.3 | – | – | – | – | Cc1cc(-c2[nH]c3cnc(C4CCC(N5CCC5)CC4)c(F)c3c2C(C)C)cn2ncnc12 (stereo not drawn) [Example 262] |
| – | – | 27 | 2.7 | > 50000 | – | – | Cc1c(-c2[nH]c3cnc(N4CCN(C(=O)CN5CCOCC5)C[C@H]4C)c(F)c3c2C(C)C)cn2ncnc2c1C [Example 471] |
| 2 | 3010 | 4.4 | – | – | – | – | COc1cc(-c2[nH]c3cnc(N4CCC(NC5COC5)CC4)cc3c2C(C)C)cn2ncnc12 [Example 320] |
| 21 | 846 | 6 | – | – | – | – | Cc1c(-c2[nH]c3cnc(C4CCC(NC(C)C)CC4)cc3c2C(C)C)cn2ncnc2c1C (stereo not drawn) [Example 318] |
| – | – | 7.3 | 2.6 | 44000 | – | – | Cc1c(-c2[nH]c3cnc(N4CCN(CC(N)=O)C[C@H]4C)c(F)c3c2C(C)C)cn2ncnc2c1C [Example 464] |
| 0.18 | 3340 | 0.41 | – | – | – | – | Cc1c(-c2[nH]c3cnc(N4CCC(NC(C)C)CC4)c(F)c3c2C(C)C)cn2ncnc2c1C [Example 166] |
| 39 | 279 | 9.7 | – | – | – | – | COc1cc(-c2[nH]c3cnc(C4CCN(CC(=O)N(C)C)CC4)c(C)c3c2C(C)C)cn2ncnc12 [Example 24] |
| 7.1 | 5820 | 8.1 | – | – | – | – | COc1cc(-c2[nH]c3cnc(N4CC5(C4)CN(C(C)C)C5)c(F)c3c2C(C)C)cn2ncnc12 [Example 373] |
| 1 | 1030 | 1.1 | – | – | – | – | COc1cc(-c2[nH]c3cnc(N4CCC(N5CC6(COC6)C5)CC4)c(C)c3c2C(C)C)cn2ncnc12 [Example 139] |
| 124 | 279 | 40 | – | – | – | – | COc1cc(-c2[nH]c3cnc(C4CCN(C(=O)CN(C)C)CC4)c(C)c3c2C(C)C)cn2ncnc12 [Example 32] |
| 6.6 | 17400 | 4.8 | – | – | – | – | COc1cc(-c2[nH]c3cnc(C4CCC(N(CC#N)C5COC5)CC4)c(F)c3c2C(C)C)cn2ncnc12 (stereo not drawn) [Example 114] |
| 0.22 | 874 | 0.77 | – | – | – | – | COc1cc(-c2[nH]c3cnc(N4CCC(NC5CCOC5)CC4)c(F)c3c2C(C)C)cn2ncnc12 (stereo not drawn) [Example 190] |
